Three molecules from ChEMBL document CHEMBL5465560, “Selectivity Literature for EUbOPEN Chemogenomic Library” (2024) can be followed below.

Test [1] concerns the target T1, Dual specificity mitogen-activated protein kinase kinase 4 (Homo sapiens) (UniProt P45985).
T1 sequence (whole entry): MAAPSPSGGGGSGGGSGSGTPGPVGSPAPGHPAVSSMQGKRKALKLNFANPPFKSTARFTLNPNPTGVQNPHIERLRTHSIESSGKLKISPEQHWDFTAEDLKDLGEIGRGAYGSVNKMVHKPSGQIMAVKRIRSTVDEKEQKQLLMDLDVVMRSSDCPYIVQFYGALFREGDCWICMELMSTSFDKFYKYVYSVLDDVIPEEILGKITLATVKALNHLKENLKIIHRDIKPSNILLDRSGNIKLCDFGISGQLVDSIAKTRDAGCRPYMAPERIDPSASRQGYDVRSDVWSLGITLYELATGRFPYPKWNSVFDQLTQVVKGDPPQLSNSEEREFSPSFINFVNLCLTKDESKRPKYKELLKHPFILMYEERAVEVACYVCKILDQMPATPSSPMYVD
The following applies: at 10 µM.

The target in test [2] is Tyrosine-protein kinase CSK (Homo sapiens) (UniProt P41240). Nature of the test: Selectivity interaction (KinomeScan (DiscoverX)) EUB0000092b CSK. The following applies: at 10 µM.
The target in test [3] is T2, Mitogen-activated protein kinase kinase kinase 5 (Homo sapiens) (UniProt Q99683).
T2 sequence (whole entry): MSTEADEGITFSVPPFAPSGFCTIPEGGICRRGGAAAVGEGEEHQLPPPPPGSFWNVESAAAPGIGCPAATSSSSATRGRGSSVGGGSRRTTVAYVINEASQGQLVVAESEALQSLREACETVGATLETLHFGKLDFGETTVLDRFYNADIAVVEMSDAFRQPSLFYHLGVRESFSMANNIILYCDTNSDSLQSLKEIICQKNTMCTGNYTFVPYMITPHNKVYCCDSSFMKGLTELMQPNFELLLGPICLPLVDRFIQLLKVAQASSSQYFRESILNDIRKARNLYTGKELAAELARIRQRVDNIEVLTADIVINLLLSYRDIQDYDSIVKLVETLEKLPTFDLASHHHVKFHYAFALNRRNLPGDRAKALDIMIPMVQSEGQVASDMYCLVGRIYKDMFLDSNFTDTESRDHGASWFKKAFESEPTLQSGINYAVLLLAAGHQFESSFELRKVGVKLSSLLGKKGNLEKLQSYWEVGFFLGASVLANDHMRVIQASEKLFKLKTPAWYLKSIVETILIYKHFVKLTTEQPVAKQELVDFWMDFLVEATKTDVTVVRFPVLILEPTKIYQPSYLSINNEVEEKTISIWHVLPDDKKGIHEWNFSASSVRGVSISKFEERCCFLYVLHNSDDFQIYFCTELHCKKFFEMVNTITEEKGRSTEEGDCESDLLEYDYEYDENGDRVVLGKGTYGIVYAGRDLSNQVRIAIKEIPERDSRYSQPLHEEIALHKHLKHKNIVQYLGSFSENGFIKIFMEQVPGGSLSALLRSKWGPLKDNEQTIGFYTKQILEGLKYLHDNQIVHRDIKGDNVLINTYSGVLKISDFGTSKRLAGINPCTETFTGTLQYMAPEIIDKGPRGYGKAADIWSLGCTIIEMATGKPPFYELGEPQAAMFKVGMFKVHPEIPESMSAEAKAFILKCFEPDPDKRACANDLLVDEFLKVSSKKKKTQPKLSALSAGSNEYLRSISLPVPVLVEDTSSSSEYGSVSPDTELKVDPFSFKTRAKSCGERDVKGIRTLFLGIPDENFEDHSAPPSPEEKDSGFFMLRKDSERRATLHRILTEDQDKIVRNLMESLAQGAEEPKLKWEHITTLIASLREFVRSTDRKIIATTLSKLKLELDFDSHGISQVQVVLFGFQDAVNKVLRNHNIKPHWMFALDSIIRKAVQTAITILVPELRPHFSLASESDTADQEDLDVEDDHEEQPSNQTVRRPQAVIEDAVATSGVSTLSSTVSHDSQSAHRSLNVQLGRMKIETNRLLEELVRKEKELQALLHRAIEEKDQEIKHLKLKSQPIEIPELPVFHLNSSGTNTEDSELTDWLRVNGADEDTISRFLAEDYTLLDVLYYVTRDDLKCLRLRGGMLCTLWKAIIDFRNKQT
Nature of the test: Selectivity interaction (ActivX KiNativ screen (kinase selectivity in THP-1 cell lysates)) EUB0000639a MAP3K5. The format is subcellular. The following applies: lysate, at 0.01 µM.

Test [4] concerns the target T3, Protein kinase C zeta type (Homo sapiens) (UniProt Q05513).
T3 sequence (whole entry): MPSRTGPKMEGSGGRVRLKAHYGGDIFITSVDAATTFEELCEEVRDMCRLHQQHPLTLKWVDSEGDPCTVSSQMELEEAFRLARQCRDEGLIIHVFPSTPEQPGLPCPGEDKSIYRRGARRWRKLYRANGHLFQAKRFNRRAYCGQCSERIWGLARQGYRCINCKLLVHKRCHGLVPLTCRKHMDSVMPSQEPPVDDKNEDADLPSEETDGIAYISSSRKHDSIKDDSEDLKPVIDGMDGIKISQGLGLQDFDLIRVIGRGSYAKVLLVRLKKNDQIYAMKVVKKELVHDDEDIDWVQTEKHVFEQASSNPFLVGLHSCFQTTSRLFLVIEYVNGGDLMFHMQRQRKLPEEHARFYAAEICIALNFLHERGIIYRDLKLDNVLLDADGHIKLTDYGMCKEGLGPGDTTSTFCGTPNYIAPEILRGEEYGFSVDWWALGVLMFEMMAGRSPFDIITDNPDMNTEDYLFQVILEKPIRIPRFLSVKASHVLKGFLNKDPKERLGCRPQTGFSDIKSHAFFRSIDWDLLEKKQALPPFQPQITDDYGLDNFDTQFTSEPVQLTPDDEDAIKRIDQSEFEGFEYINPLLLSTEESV
Description: Selectivity interaction (Kinase panel (Invitrogen)) EUB0000639a PRKCZ. The following applies: at 200 nM.

Tyrosine-protein kinase CSK (Homo sapiens), sequence (P41240 2-450 limits assumed): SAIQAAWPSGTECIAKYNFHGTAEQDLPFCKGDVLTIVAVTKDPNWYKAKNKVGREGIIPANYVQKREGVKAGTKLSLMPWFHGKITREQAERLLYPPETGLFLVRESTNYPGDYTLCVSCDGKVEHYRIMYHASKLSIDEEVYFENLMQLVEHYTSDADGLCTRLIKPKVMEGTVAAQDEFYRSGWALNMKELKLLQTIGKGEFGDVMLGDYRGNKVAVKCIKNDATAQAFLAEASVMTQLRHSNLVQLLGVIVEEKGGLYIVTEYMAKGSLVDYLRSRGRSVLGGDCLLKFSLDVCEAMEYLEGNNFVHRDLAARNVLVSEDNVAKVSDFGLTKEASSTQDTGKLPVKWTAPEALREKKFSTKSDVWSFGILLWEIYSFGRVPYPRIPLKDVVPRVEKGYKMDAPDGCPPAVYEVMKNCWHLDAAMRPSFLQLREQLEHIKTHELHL

The molecule `Cc1cc([C@@H](C)Nc2ccccc2C(=O)O)c2nc(N3CCOCC3)cc(=O)n2c1` [AZD-6482] had a % of control in test [1] of 100%.
`CCC(=O)N1CCN(c2ccc(-n3c(=O)ccc4cnc5ccc(-c6cnc7ccccc7c6)cc5c43)cc2C(F)(F)F)CC1` registered a % of control in test [2] of 71%.
Take `CC[C@@H]1[C@H](F)C(=O)N[C@@H]1COc1nccc2cc(C(N)=O)c(OC)cc12` [ZIMLOVISERTIB]: the results for the % of inhibition in test [3] and in test [4] were -5.8% and 6.26%, respectively.
